Experimental data reported in PubChem BioAssay AID720589 (Broad Institute, 2013).
The source made the active and inactive calls.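 The calls were made as follows: active = fitted curve drops below -35% activity at a concentration within twice the top valid tested dose; inconclusive = no clear call, values can overlap the other calls; inactive = signal rising instead of falling, among other cases.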

Test: ATP-based viability loss in HepG2 cells – cell-based, CellTiter-Glo luminescence, cherry-pick, set 3, cytotoxicity control, dose response (AID 720589)
Conditions: HepG2 viability, ATP luminescence (CellTiter-Glo), 72 h; at 0.011 µM; active compounds read low; 0% = untreated, negative = ATP loss

SMILES	max activity
COc1ccccc1/C=C1\SC(=S)N(CCC(=O)Nc2cc(C)on2)C1=O	-26.3% (inactive)
CC(=O)N1CCCC(c2cc(C(=O)Nc3ccccc3)no2)C1 (stereo not given)	15.4% (inactive)
N#Cc1cccc(-c2ccc(C3[C@@H]4CN(C(=O)Cc5ccncc5)C[C@H]3N4)cc2)c1 (stereo not given in full)	21% (inactive)
CCOc1ccc(-c2cc(CCCC(=O)N3CCN(c4ccc(OC)cc4)CC3)no2)cc1	-25.4% (inactive)
COc1ccc(NS(=O)(=O)c2cc(NC(=O)CNC(=O)c3cccc(OC)c3)ccc2C)cc1	-35% (inactive)
C[C@@H]1CN([C@@H](C)CO)S(=O)(=O)c2ccc(C#Cc3ccncc3)cc2O[C@H]1CN(C)C(=O)C1CCOCC1	-28.4% (inactive)
COc1ccccc1NS(=O)(=O)c1cc(NC(=O)c2cc3ccccc3oc2=O)ccc1C	-20.4% (inactive)
Cc1ccc(N=C2NC(=O)/C(=C\c3cccs3)S2)cc1C	-17.8% (inactive)
O=C1CCCC2=C1C(c1ccccn1)Nc1ccc(C(=O)c3ccccc3)cc1N2 (stereo not given)	38.6% (inactive)
CCn1c(/C=N/NC(=O)c2ccc(OC)cc2)nc2ccccc21	-35.2% (inactive)
Nc1ccc(Oc2cccc(Oc3ccc(N)cc3)c2)cc1	11.2% (inactive)
C/C(=N\N(c1ccccc1)c1ccccc1)c1ccco1	17.6% (inactive)

Same assay, conditions: HepG2 viability, ATP luminescence (CellTiter-Glo), 72 h; at 0.012 µM; active compounds read low; 0% = untreated, negative = ATP loss

SMILES	max activity
CN(C)C(=O)c1ccc(-c2ccccc2[C@@H]2[C@@H](CO)N(C(=O)C3CC3)[C@H]2C#N)cc1	20.5% (inactive)

Same assay, conditions: HepG2 viability, ATP luminescence (CellTiter-Glo), 72 h; at 0.035 µM; active compounds read low; 0% = untreated, negative = ATP loss

SMILES	max activity
CN(C)C(=S)N=Nc1[nH]c2ccccc2c1O	24.6% (inactive)
C/C(=N\OCc1cccc(C(=O)O)c1)c1ccc(Cl)cc1	-7.45% (inactive)
COc1ccc(CCCNC(=O)C2Cc3c(-c4ccc5c(c4)OCO5)ccnc3O2)cc1 (stereo not given)	-34% (inactive)
CC(=O)c1ccc(N=Nc2ccc(C)cc2)cc1	-7.42% (inactive)
Nc1ccc2oc(-c3cc(Br)ccc3Cl)nc2c1	-30.5% (inactive)
COc1ccc(S(=O)(=O)N2CC[C@@H]3[C@H](CO)Nc4ccc(-c5ccc(C#N)cc5)cc4[C@@H]32)cc1	-30.4% (inactive)
O=C(CCCN1C(=O)/C(=C/c2ccccc2Cl)SC1=S)NNC(=O)c1ccc(Cl)cc1Cl	-21.5% (inactive)

Same assay, conditions: HepG2 viability, ATP luminescence (CellTiter-Glo), 72 h; at 0.1 µM; active compounds read low; 0% = untreated, negative = ATP loss

SMILES	max activity
Cc1cc(Br)ccc1N=C1C(=O)Nc2ccccc21	-28.8% (inactive)
Cc1ccsc1C(=O)OCC(=O)c1cc(C)n(C)c1C	9.16% (inactive)
CCc1ccc(N2C=C(C(=O)OC)C(c3ccc(OC)cc3)C(C#N)=C2N)cc1 (stereo not given)	-15.5% (inactive)
Cc1ccc(S(=O)(=O)N(C)C[C@@H]2Oc3cc(C#Cc4ccncc4)ccc3S(=O)(=O)N([C@@H](C)CO)C[C@H]2C)cc1	-24.6% (inactive)
O=C1Nc2ccccc2C1=Nc1ccccc1-c1ccccc1	10.3% (inactive)
CC(=O)c1ccc(N=C2C(=O)Nc3ccccc32)cc1	-37.4% (inactive)

Same assay, conditions: HepG2 viability, ATP luminescence (CellTiter-Glo), 72 h; at 0.3 µM; active compounds read low; 0% = untreated, negative = ATP loss

SMILES	max activity
COc1cc(/C=C/C(=O)/C=C(O)/C=C/c2ccc(O)c(OC)c2)ccc1O	-31.5% (inactive)
COc1cc(/C=C/C(=O)CC(=O)/C=C/c2ccc(O)c(OC)c2)ccc1O	-27.1% (inactive)
Cc1ccccc1NC(=O)C(=Cc1ccc(C(=O)O)cc1)C(=O)Nc1ccccc1C	-13.1% (inactive)
C[C@H]1CN([C@@H](C)CO)S(=O)(=O)c2ccc(C#Cc3ccncc3)cc2O[C@@H]1CN(C)S(=O)(=O)c1ccccc1	-9.66% (inactive)
Cc1cc(C(=O)Nc2ccc3c(c2)C(=O)N(C)[C@@H]2CC[C@@H](CC(=O)NCc4ccc(-c5ccccc5)cc4)O[C@H]2CO3)no1	-28.4% (inactive)
CC(C)(C)c1ccc(Oc2ccc(NC(=O)c3ccccc3C(=O)O)cn2)cc1	-40.7% (inactive)

Same assay, conditions: HepG2 viability, ATP luminescence (CellTiter-Glo), 72 h; at 0.9 µM; active compounds read low; 0% = untreated, negative = ATP loss

SMILES	max activity
COC(=O)C[C@@H]1CC[C@@H]2[C@H](COc3ccc(NC(=O)Nc4cccc(Cl)c4)cc3C(=O)N2C)O1	-25.8% (inactive)
C[C@@H]1CN([C@@H](C)CO)C(=O)c2cccc(NC(=O)Nc3ccccc3)c2O[C@@H]1CN(C)Cc1ccc(-c2ccccc2)cc1	-17% (inactive)
O=C(NCc1ccccn1)c1ccc(CNS(=O)(=O)c2cccc(Cl)c2)cc1	-24.4% (inactive)
c1cncc(-c2ccc([C@@H]3[C@H]4CNC[C@@H]3N4CC3CCOCC3)cc2)c1	-28.8% (inactive)
CCc1ccc(/C=C2\SC(=S)N(CCCC(=O)Nc3cc(C)on3)C2=O)cc1	-32.1% (inactive)

Same assay, conditions: HepG2 viability, ATP luminescence (CellTiter-Glo), 72 h; at 2.6 µM; active compounds read low; 0% = untreated, negative = ATP loss

SMILES	max activity
COC(=O)C[C@@H]1CC[C@@H]2[C@H](COc3ccc(NC(=O)c4cccc(Cl)c4)cc3C(=O)N2C)O1	-17.7% (inactive)

Same assay, conditions: HepG2 viability, ATP luminescence (CellTiter-Glo), 72 h; at 2.85 µM; active compounds read low; 0% = untreated, negative = ATP loss

SMILES	max activity
COc1ccc(-c2cnc3c(NC=O)cc(-c4ccccc4OC)cn23)cc1OC	-32.9% (inactive)
COc1ccc(OC)c(-c2nnc3n2N=C(c2ccc(OC)c(OC4CCOC4)c2)CS3)c1 (stereo not given)	-28.2% (inactive)
COCC(=O)Nc1ccc2c(c1)[C@@H]1C[C@@H](CC(=O)NCc3ccc(-c4ccccc4)cc3)O[C@@H](CO)[C@@H]1O2	-28% (inactive)
COc1ccc(Nc2oc(COc3ccccc3OC)nc2C#N)cc1	-51% (inactive)
O=C(O)c1ccccc1C(=O)Nc1ccc(Oc2ccc3ccccc3c2)cc1	-28.2% (inactive)
O=C(CN1C(=O)C(=O)c2ccccc21)c1ccc(Cl)cc1	-20.2% (inactive)
CN(C)c1ccc2c(c1)[C@@H]1C[C@@H](CC(=O)NCc3ccc(Oc4ccccc4)cc3)O[C@H](CO)[C@@H]1O2	-31.7% (inactive)
C[C@@H]1CN([C@H](C)CO)S(=O)(=O)c2ccc(C#CC3CC3)cc2O[C@@H]1CN(C)Cc1ccccc1F	-22% (inactive)
Cc1cc(C(=O)Nc2ccc3c(c2)C(=O)N(C)[C@@H]2CC[C@H](CC(=O)N[C@H](C)c4ccccc4)O[C@H]2CO3)no1	-28.2% (inactive)
CC(C)NC(=O)N(C)C[C@@H]1Oc2cc(C#Cc3ccc(F)cc3)ccc2S(=O)(=O)N([C@H](C)CO)C[C@H]1C	-21.1% (inactive)
CCCc1nc2ccc(NC(=O)c3cccs3)cc2c(=O)n1Cc1ccccc1Cl	-32.5% (inactive)
C/C=C/c1ccc(C2[C@@H]3CN(C(=O)Cc4ccccc4)C[C@H]2N3)cc1 (stereo not given in full)	-29.1% (inactive)
CCCCCCCCCCCCCCCCCCNc1ccn(C2OC(COP(=O)(O)OCC3OC(n4cc(F)c(=O)[nH]c4=O)CC3O)C(O)C2O)c(=O)n1 (stereo not given)	-36% (inactive)
CCOC(=O)Cc1csc(NC(=S)NC(=O)c2ccc(C)cc2)n1	11.3% (inactive)

Same assay, conditions: HepG2 viability, ATP luminescence (CellTiter-Glo), 72 h; at 8 µM; active compounds read low; 0% = untreated, negative = ATP loss

SMILES	max activity
Cc1ccc(Cl)cc1NC(=O)Cn1cc(C(F)(F)F)cc(Cl)c1=O	-28.6% (inactive)
O=C(C[C@@H]1C[C@H]2c3cc(NS(=O)(=O)c4ccc(F)cc4)ccc3O[C@H]2[C@H](CO)O1)NCc1ccc(-c2ccccc2)cc1	-26.1% (inactive)
CO[C@H]1CN(C)C(=O)c2cc(NC(=O)NC(C)C)ccc2OC[C@H](C)N(Cc2ccc(-c3ccccn3)cc2)C[C@@H]1C	-24.8% (inactive)
C[C@H](CO)N1C[C@H](C)[C@H](CN(C)Cc2ccc(C(F)(F)F)cc2)Oc2ccc(NC(=O)CCCCCC(=O)Nc3ccccc3N)cc2CC1=O	-23.5% (inactive)
COc1ccccc1CNC(=O)C[C@@H]1CC[C@H]2[C@@H](COC[C@H](O)CN2C(=O)Nc2ccc(C(F)(F)F)cc2)O1	-30.7% (inactive)
COc1cc(/C=N/NS(=O)(=O)c2ccc(C)cc2)ccc1OCc1cccc(C(=O)O)c1	-15.9% (inactive)
Cc1ccc2c(=O)n3c(nc2c1)C(Cc1ccc(O)cc1)NC(=O)c1cc2ccccc2cc1-3 (stereo not given)	-16.9% (inactive)

Same assay, conditions: HepG2 viability, ATP luminescence (CellTiter-Glo), 72 h; at 26 µM; active compounds read low; 0% = untreated, negative = ATP loss

SMILES	max activity
O=C(CCCN1C(=O)S/C(=C\c2ccccc2)C1=O)NNC(=O)c1ccccc1O	-21.8% (inactive)
CCC1=Nc2cc(C(=O)NCC3CCCO3)ccc2Sc2ccc(Br)cc21 (stereo not given)	-32.3% (inactive)
CCCN(C)C[C@H]1Oc2ncc(-c3ccccc3)cc2C(=O)N([C@@H](C)CO)C[C@H]1C	18.2% (inactive)
O=C(O)c1ccc(N/N=C/c2ccc3nccnc3c2)cc1	-27.1% (inactive)
C[C@@H]1CN([C@@H](C)CO)C(=O)Cc2cc(NC(=O)Cn3cnnn3)ccc2O[C@@H]1CN(C)Cc1ccc(Oc2ccccc2)cc1	25% (inactive)
O=c1[nH]c(=O)n(C2C[C@H](O)[C@@H](CO)O2)cc1C(F)(F)F (stereo not given in full)	-30.8% (inactive)
COc1ccc(C(=O)CN2C(=O)c3ccccc3S2(=O)=O)cc1	10.2% (inactive)
COc1cc2oc3cc(C#Cc4ccc(N)cc4)ccc3c(=O)c2cc1OC	-39.4% (inactive)
COc1ccc(C=C2CCc3ccccc3C2=O)cc1	-23.4% (inactive)
COc1ccc(-c2sc3ccccc3c2-c2ccc(OCCN3CCCCC3)cc2)cc1	-22.5% (inactive)
CC1=NN(c2ccccc2)C(=O)/C1=C\C=C\c1ccccc1	-54.8% (inactive)
O=C(CN1C(=O)c2ccccc2S1(=O)=O)c1ccc(F)cc1	20.9% (inactive)
COC(=O)COc1ccc(-c2nccc(-c3ccccn3)n2)cc1	18.7% (inactive)
N#CC1=C(N)Oc2cc(N)ccc2C1c1cccc(Br)c1 (stereo not given)	-27% (inactive)
CN(CCO)c1ccc(/C=N/Nc2nncc3ccccc23)cc1	-29.7% (inactive)
C(=N\Nc1ccc2ccccc2n1)/c1ccc2c(c1)OCCO2	-26.2% (inactive)
